Assay results taken from ChEMBL document CHEMBL5724806, “Unraveling interindividual differences and functional consequences of gut microbial metabolism of immunosuppressants” (2024).

Key:
Assay type in all cases: ADME
[1] = The drug is tested on Bacteroides xylanisolvens strain: HM 722 for biotransformation under anaerobic condition. The drug concentrations were measured over 6 timepoints collected between 0 and 12 hours of incubation by liquid-chromatography-coupled mass spectrometry (LC–MS); parameters: dose 5 uM, timepoint 0, 1.5, 3, 6, 9, 12 hours; details: 5 µM
[2] = (§1) The drug is tested on Parabacteroides distasonis strain: DSM20701 for biotransformation under anaerobic condition. The drug concentrations were measured over 6 timepoints collected between 0 and 12 hours of incubation by liquid-chromatography-coupled mass spectrometry (LC–MS); parameters: dose 5 uM, timepoint 0, 1.5, 3, 6, 9, 12 hours; details: 5 µM
[3] = The drug is tested on Parabacteroides merdae strain: DSM19495 for biotransformation under anaerobic condition. The drug concentrations were measured over 6 timepoints collected between 0 and 12 hours of incubation by liquid-chromatography-coupled mass spectrometry (LC–MS); parameters: dose 5 uM, timepoint 0, 1.5, 3, 6, 9, 12 hours; details: 5 µM
[4] = The drug is tested on Clostridium bolteae strain: DSM15670 for biotransformation under anaerobic condition. The drug concentrations were measured over 6 timepoints collected between 0 and 12 hours of incubation by liquid-chromatography-coupled mass spectrometry (LC–MS); parameters: dose 5 uM, timepoint 0, 1.5, 3, 6, 9, 12 hours; details: enterocloster bolteae, 5 µM
[5] = The drug is tested on Clostridium ramosum strain: DSM1402 for biotransformation under anaerobic condition. The drug concentrations were measured over 6 timepoints collected between 0 and 12 hours of incubation by liquid-chromatography-coupled mass spectrometry (LC–MS); parameters: dose 5 uM, timepoint 0, 1.5, 3, 6, 9, 12 hours; details: thomasclavelia ramosa, 5 µM
[6] = The drug is tested on Dorea formicigenerans strain: DSM3992 for biotransformation under anaerobic condition. The drug concentrations were measured over 6 timepoints collected between 0 and 12 hours of incubation by liquid-chromatography-coupled mass spectrometry (LC–MS); parameters: dose 5 uM, timepoint 0, 1.5, 3, 6, 9, 12 hours; details: 5 µM
[7] = The drug is tested on Eubacterium hallii strain: DSM3353 for biotransformation under anaerobic condition. The drug concentrations were measured over 6 timepoints collected between 0 and 12 hours of incubation by liquid-chromatography-coupled mass spectrometry (LC–MS); parameters: dose 5 uM, timepoint 0, 1.5, 3, 6, 9, 12 hours; details: anaerobutyricum hallii, 5 µM
[8] = The drug is tested on Faecalibacterium prausnitzii strain: DSM17677 for biotransformation under anaerobic condition. The drug concentrations were measured over 6 timepoints collected between 0 and 12 hours of incubation by liquid-chromatography-coupled mass spectrometry (LC–MS); parameters: dose 5 uM, timepoint 0, 1.5, 3, 6, 9, 12 hours; details: faecalibacterium duncaniae, 5 µM
[9] = The drug is tested on Gemella haemolysans strain: DSM107751 for biotransformation under anaerobic condition. The drug concentrations were measured over 6 timepoints collected between 0 and 12 hours of incubation by liquid-chromatography-coupled mass spectrometry (LC–MS); parameters: dose 5 uM, timepoint 0, 1.5, 3, 6, 9, 12 hours; details: 5 µM
[10] = The drug is tested on Gemella morbillorum strain: DSM20572 for biotransformation under anaerobic condition. The drug concentrations were measured over 6 timepoints collected between 0 and 12 hours of incubation by liquid-chromatography-coupled mass spectrometry (LC–MS); parameters: dose 5 uM, timepoint 0, 1.5, 3, 6, 9, 12 hours; details: 5 µM
[11] = The drug is tested on Lactobacillus gasseri strain: DSM20243 for biotransformation under anaerobic condition. The drug concentrations were measured over 6 timepoints collected between 0 and 12 hours of incubation by liquid-chromatography-coupled mass spectrometry (LC–MS); parameters: dose 5 uM, timepoint 0, 1.5, 3, 6, 9, 12 hours; details: 5 µM
[12] = The drug is tested on Roseburia intestinalis strain: DSM14610 for biotransformation under anaerobic condition. The drug concentrations were measured over 6 timepoints collected between 0 and 12 hours of incubation by liquid-chromatography-coupled mass spectrometry (LC–MS); parameters: dose 5 uM, timepoint 0, 1.5, 3, 6, 9, 12 hours; details: 5 µM
[13] = The drug is tested on Ruminococcus gnavus strain: ATCC29149 for biotransformation under anaerobic condition. The drug concentrations were measured over 6 timepoints collected between 0 and 12 hours of incubation by liquid-chromatography-coupled mass spectrometry (LC–MS); parameters: dose 5 uM, timepoint 0, 1.5, 3, 6, 9, 12 hours; details: mediterraneibacter gnavus, 5 µM
[14] = The drug is tested on Streptococcus anginosus strain: DSM20563 for biotransformation under anaerobic condition. The drug concentrations were measured over 6 timepoints collected between 0 and 12 hours of incubation by liquid-chromatography-coupled mass spectrometry (LC–MS); parameters: dose 5 uM, timepoint 0, 1.5, 3, 6, 9, 12 hours; details: 5 µM
[15] = The drug is tested on Streptococcus mitis strain: DSM12643 for biotransformation under anaerobic condition. The drug concentrations were measured over 6 timepoints collected between 0 and 12 hours of incubation by liquid-chromatography-coupled mass spectrometry (LC–MS); parameters: dose 5 uM, timepoint 0, 1.5, 3, 6, 9, 12 hours; details: 5 µM
[16] = The drug is tested on Streptococcus sanguinis strain: DSM20567 for biotransformation under anaerobic condition. The drug concentrations were measured over 6 timepoints collected between 0 and 12 hours of incubation by liquid-chromatography-coupled mass spectrometry (LC–MS); parameters: dose 5 uM, timepoint 0, 1.5, 3, 6, 9, 12 hours; details: 5 µM
[17] = The drug is tested on Akkermansia muciniphila strain: DSM22959 for biotransformation under anaerobic condition. The drug concentrations were measured over 6 timepoints collected between 0 and 12 hours of incubation by liquid-chromatography-coupled mass spectrometry (LC–MS); parameters: dose 5 uM, timepoint 0, 1.5, 3, 6, 9, 12 hours; details: 5 µM
[18] = (§2) The drug is tested on Bifidobacterium longum strain: DSM20088 for biotransformation under microaerobic condition. The drug concentrations were measured over 6 timepoints collected between 0 and 12 hours of incubation by liquid-chromatography-coupled mass spectrometry (LC–MS); parameters: dose 5 uM, timepoint 0, 1.5, 3, 6, 9, 12 hours; details: 5 µM
[19] = The drug is tested on Gemella morbillorum strain: DSM20572 for biotransformation under microaerobic condition. The drug concentrations were measured over 6 timepoints collected between 0 and 12 hours of incubation by liquid-chromatography-coupled mass spectrometry (LC–MS); parameters: dose 5 uM, timepoint 0, 1.5, 3, 6, 9, 12 hours; details: 5 µM
[20] = as §1, with “the gut metagenome community of A-04 with ENA study accession number: PRJEB31790” for “Parabacteroides distasonis strain: DSM20701”, “7” for “6”; parameters: dose 5 uM, timepoint 0, 0.75, 1.5, 3, 6, 9, 12 hours; details: 5 µM
[21] = as §1, with “the gut metagenome community of A-06 with ENA study accession number: PRJEB31790” for “Parabacteroides distasonis strain: DSM20701”, “7” for “6”; parameters: dose 5 uM, timepoint 0, 0.75, 1.5, 3, 6, 9, 12 hours; details: 5 µM
[22] = as §1, with “the gut metagenome community of A-10 with ENA study accession number: PRJEB31790” for “Parabacteroides distasonis strain: DSM20701”, “7” for “6”; parameters: dose 5 uM, timepoint 0, 0.75, 1.5, 3, 6, 9, 12 hours; details: 5 µM
[23] = as §1, with “the gut metagenome community of P-02 with ENA study accession number: PRJEB31790” for “Parabacteroides distasonis strain: DSM20701”, “7” for “6”; parameters: dose 5 uM, timepoint 0, 0.75, 1.5, 3, 6, 9, 12 hours; details: 5 µM
[24] = as §1, with “the gut metagenome community of P-03 with ENA study accession number: PRJEB31790” for “Parabacteroides distasonis strain: DSM20701”, “7” for “6”; parameters: dose 5 uM, timepoint 0, 0.75, 1.5, 3, 6, 9, 12 hours; details: 5 µM
[25] = as §1, with “the gut metagenome community of T-02 with ENA study accession number: PRJEB31790” for “Parabacteroides distasonis strain: DSM20701”, “7” for “6”; parameters: dose 5 uM, timepoint 0, 0.75, 1.5, 3, 6, 9, 12 hours; details: 5 µM
[26] = as §2, with “the gut metagenome community of A-08 with ENA study accession number: PRJEB31790” for “Bifidobacterium longum strain: DSM20088”, “7” for “6”; parameters: dose 5 uM, timepoint 0, 0.75, 1.5, 3, 6, 9, 12 hours; details: 5 µM
[27] = as §2, with “the gut metagenome community of A-09 with ENA study accession number: PRJEB31790” for “Bifidobacterium longum strain: DSM20088”, “7” for “6”; parameters: dose 5 uM, timepoint 0, 0.75, 1.5, 3, 6, 9, 12 hours; details: 5 µM
[28] = as §2, with “the gut metagenome community of P-04 with ENA study accession number: PRJEB31790” for “Bifidobacterium longum strain: DSM20088”, “7” for “6”; parameters: dose 5 uM, timepoint 0, 0.75, 1.5, 3, 6, 9, 12 hours; details: 5 µM
[29] = as §2, with “the gut metagenome community of T-01 with ENA study accession number: PRJEB31790” for “Bifidobacterium longum strain: DSM20088”, “7” for “6”; parameters: dose 5 uM, timepoint 0, 0.75, 1.5, 3, 6, 9, 12 hours; details: 5 µM
[30] = as §2, with “the gut metagenome community of T-02 with ENA study accession number: PRJEB31790” for “Bifidobacterium longum strain: DSM20088”, “7” for “6”; parameters: dose 5 uM, timepoint 0, 0.75, 1.5, 3, 6, 9, 12 hours; details: 5 µM

SMILES | Bacterial Biotransformation [1] | Bacterial Biotransformation [2] | Bacterial Biotransformation [3] | Bacterial Biotransformation [4] | Bacterial Biotransformation [5] | Bacterial Biotransformation [6] | Bacterial Biotransformation [7] | Bacterial Biotransformation [8] | Bacterial Biotransformation [9] | Bacterial Biotransformation [10] | Bacterial Biotransformation [11] | Bacterial Biotransformation [12] | Bacterial Biotransformation [13] | Bacterial Biotransformation [14] | Bacterial Biotransformation [15] | Bacterial Biotransformation [16] | Bacterial Biotransformation [17] | Bacterial Biotransformation [18] | Bacterial Biotransformation [19] | Bacterial Biotransformation [20] | further results
C[C@H]1C[C@@H]2[C@H]([C@@H](O)C[C@@]3(C)[C@H]2CC[C@]3(O)C(=O)CO)[C@@]2(C)C=CC(=O)C=C12 [METHYLPREDNISOLONE] | Compound NOT metabolized | Compound NOT metabolized | Compound NOT metabolized | Compound NOT metabolized | Compound NOT metabolized | Compound NOT metabolized | Compound NOT metabolized | Compound NOT metabolized | Compound NOT metabolized | Compound NOT metabolized | Compound NOT metabolized | Compound NOT metabolized | Compound metabolized | Compound NOT metabolized | Compound NOT metabolized | Compound NOT metabolized | Compound NOT metabolized | Compound NOT metabolized | Compound NOT metabolized | Compound metabolized | Bacterial Biotransformation [21]: Compound metabolized; Bacterial Biotransformation [22]: Compound metabolized; Bacterial Biotransformation [23]: Compound metabolized; Bacterial Biotransformation [24]: Compound metabolized; Bacterial Biotransformation [25]: Compound metabolized; Bacterial Biotransformation [26]: Compound metabolized; Bacterial Biotransformation [27]: Compound metabolized; Bacterial Biotransformation [28]: Compound metabolized; Bacterial Biotransformation [29]: Compound metabolized; Bacterial Biotransformation [30]: Compound metabolized
COc1c(C)c2c(c(O)c1C/C=C(\C)CCC(=O)OCCN1CCOCC1)C(=O)OC2 [MYCOPHENOLATE MOFETIL] | Compound metabolized | Compound metabolized | Compound metabolized | Compound NOT metabolized | Compound NOT metabolized | Compound NOT metabolized | Compound NOT metabolized | Compound metabolized | Compound metabolized | Compound metabolized | Compound metabolized | Compound NOT metabolized | Compound NOT metabolized | Compound metabolized | Compound metabolized | Compound metabolized | Compound NOT metabolized | Compound NOT metabolized | Compound NOT metabolized | Compound metabolized | Bacterial Biotransformation [21]: Compound metabolized; Bacterial Biotransformation [22]: Compound metabolized; Bacterial Biotransformation [23]: Compound metabolized; Bacterial Biotransformation [24]: Compound metabolized; Bacterial Biotransformation [25]: Compound metabolized; Bacterial Biotransformation [26]: Compound metabolized; Bacterial Biotransformation [27]: Compound metabolized; Bacterial Biotransformation [28]: Compound metabolized; Bacterial Biotransformation [29]: Compound metabolized; Bacterial Biotransformation [30]: Compound metabolized
COc1c(C)c2c(c(O)c1C/C=C(\C)CCC(=O)O)C(=O)OC2 [MYCOPHENOLIC ACID] | Compound NOT metabolized | Compound NOT metabolized | Compound NOT metabolized | Compound NOT metabolized | Compound NOT metabolized | Compound NOT metabolized | Compound NOT metabolized | Compound NOT metabolized | Compound NOT metabolized | Compound NOT metabolized | Compound NOT metabolized | Compound NOT metabolized | Compound NOT metabolized | Compound NOT metabolized | Compound NOT metabolized | Compound NOT metabolized | Compound NOT metabolized | Compound NOT metabolized | Compound NOT metabolized | Compound NOT metabolized | Bacterial Biotransformation [21]: Compound NOT metabolized; Bacterial Biotransformation [22]: Compound NOT metabolized; Bacterial Biotransformation [23]: Compound NOT metabolized; Bacterial Biotransformation [24]: Compound NOT metabolized; Bacterial Biotransformation [25]: Compound NOT metabolized; Bacterial Biotransformation [26]: Compound NOT metabolized; Bacterial Biotransformation [27]: Compound NOT metabolized; Bacterial Biotransformation [28]: Compound NOT metabolized; Bacterial Biotransformation [29]: Compound NOT metabolized; Bacterial Biotransformation [30]: Compound NOT metabolized
